Entries after “also recorded” stand apart in the source; their conditions may differ.
Key:
Assay type in all cases: in vivo, male Carworth Farms #1 mice or Sprague-Dawley rats
[1] = Maximal Electroshock Seizure Test; conditions: for Lowest active dose, MES (Phase I): Table V; for ED50: Mus musculus, read-out: ED50 for inhibition of seizures, MES (Phase II); for Protection against Maximal Electroshock-induced seizures (in words): running text
[2] = Anticonvulsant activity, both or unspecified seizure models; conditions: for Anticonvulsant activity (in words): running text; for Time of peak activity (Phase II): Table X, IP, challenge time
[3] = Subcutaneous Pentylenetetrazol (Metrazol) Seizure Threshold Test; conditions: for Lowest active dose, Metrazol (Phase I): Table V; for ED50: Mus musculus, read-out: ED50 for inhibition of seizures, Metrazol (Phase II); for Protection against Metrazol-induced seizures (in words): running text
[4] = Table X, IP, at time of peak activity
[5] = Table X, IP, challenge time 30 min
[6] = Table X, IP, challenge time 4 hrs
[7] = Table X, SC, challenge time 30 min
[8] = Table X, SC, challenge time 4 hrs

In the case of `Cc1ncc(CO)c(C=N[C@@H](CO)C(=O)[O-])c1[O-].O.[Cu+2]` [Cu(II)Pyridoxylidene-L-serinate(H2 O)], the “Lowest active dose, MES (Phase I)” value ([1]; IP, challenge time 30 min) is reported as “I”, the “Lowest active dose, MES (Phase I)” value ([1]; IP, challenge time 4 hrs) is reported as “I” and the “Anticonvulsant activity (in words)” value [2] is reported as “more effective but only protected against the Metrazol-induced seizure”. For the same compound, the “Lowest active dose, Metrazol (Phase I)” value ([3]; IP, challenge time 30 min) was 100 mg/kg of body weight and the “Lowest active dose, Metrazol (Phase I)” value ([3]; IP, challenge time 4 hrs) was 100 mg/kg of body weight.
For `Cc1ncc(CO)c(C=NC(C(=O)[O-])C(C)O)c1[O-].O.O.[Cu+2]` [Cu(II)Pyridoxylidene-L-threoninate(H2 O)2], the “Lowest active dose, MES (Phase I)” value ([1]; IP, challenge time 30 min) was “I”, the “Lowest active dose, MES (Phase I)” value ([1]; IP, challenge time 4 hrs) was “I” and the “Anticonvulsant activity (in words)” value [2] was “more effective but only protected against the Metrazol-induced seizure”. For the same compound, the “Lowest active dose, Metrazol (Phase I)” value ([3]; IP, challenge time 30 min) was 30 mg/kg of body weight and the “Lowest active dose, Metrazol (Phase I)” value ([3]; IP, challenge time 4 hrs) was 30 mg/kg of body weight.
In the case of `Cc1ncc(CO)c(C=N[C@@H](Cc2c[nH]c3ccccc23)C(=O)[O-])c1[O-].O.O.[Cu+2]` [Cu(II)Pyridoxylidene-L-tryptophanate(H2 O)2], the “Lowest active dose, MES (Phase I)” value ([1]; IP, challenge time 30 min) is reported as “I”, the “Lowest active dose, MES (Phase I)” value ([1]; IP, challenge time 4 hrs) is reported as “I” and the “Anticonvulsant activity (in words)” value [2] is reported as “more effective but only protected against the Metrazol-induced seizure”. For the same compound, the “Lowest active dose, Metrazol (Phase I)” value ([3]; IP, challenge time 30 min) was 30 mg/kg of body weight and the “Lowest active dose, Metrazol (Phase I)” value ([3]; IP, challenge time 4 hrs) was 30 mg/kg of body weight.
In the case of `Cc1ncc(CO)c(C=NCC(=O)[O-])c1[O-].Cc1ncc(CO)c(C=NCC(=O)[O-])c1[O-].O.O.O.[Cu+2].[Cu+2]` [Cu(II)Pyridoxylideneglycinate(H2 O)1.5], the “Lowest active dose, MES (Phase I)” value ([1]; IP, challenge time 30 min) is reported as 300 mg/kg of body weight, the “Lowest active dose, MES (Phase I)” value ([1]; IP, challenge time 4 hrs) is reported as “I” and the “Anticonvulsant activity (in words)” value [2] is reported as “protected against both types of seizure”. The “Lowest active dose, Metrazol (Phase I)” value ([3]; IP, challenge time 30 min) was 100 mg/kg of body weight and the “Lowest active dose, Metrazol (Phase I)” value ([3]; IP, challenge time 4 hrs) was “I”.
For `CN1C(=O)CN=C(c2ccccc2)c2cc(Cl)ccc21` [Diazepam, reference compound], the ED50 ([1]; ip) was 19 mg/kg, the “Time of peak activity (Phase II)” value [2] was 1 h and the ED50 ([3]; ip) was 0.17 mg/kg.
For `O=C1Nc2ccc(Cl)cc2C(c2ccccc2Cl)=NC1O` (stereo not shown) [Lorazepam, reference compound], the ED50 ([1]; ip) was 24 mg/kg, the “Time of peak activity (Phase II)” value [2] was 1 h and the ED50 ([3]; ip) was 0.02 mg/kg.
In the case of `CCC1(c2ccccc2)C(=O)[N-]C(=O)NC1=O.CCC1(c2ccccc2)C(=O)[N-]C(=O)NC1=O.CCC1(c2ccccc2)C(=O)[N-]C(=O)NC1=O.CCC1(c2ccccc2)C(=O)[N-]C(=O)NC1=O.O.O.[Cu+2].[Na+].[Na+]` [Na2 [Cu(II)(Phenobarbital)4](H2 O)2], the “ED50 for inhibition of seizures, MES (Phase II)” value [1, 4] is reported as 25 mg/kg, the “Lowest effective dose, MES (Phase I)” value [1, 5] is reported as 30 milligrams per kilogram of bod and the “Lowest effective dose, MES (Phase I)” value [1, 6] is reported as 100 milligrams per kilogram of bod. The “Lowest effective dose, MES (Phase I)” value [1, 7] was 30 milligrams per kilogram of bod, the “Lowest effective dose, MES (Phase I)” value [1, 8] was 30 milligrams per kilogram of bod and the “Time of peak activity (Phase II)” value [2] was 6 h. For the same compound, the “ED50 for inhibition of seizures, Metrazol (Phase II)” value [3, 4] was 20 mg/kg, the “Lowest effective dose, Metrazol (Phase I)” value [3, 5] was 30 milligrams per kilogram of bod and the “Lowest effective dose, Metrazol (Phase I)” value [3, 6] was 100 milligrams per kilogram of bod. For the same compound, the “Lowest effective dose, Metrazol (Phase I)” value [3, 7] was 30 milligrams per kilogram of bod and the “Lowest effective dose, Metrazol (Phase I)” value [3, 8] was 100 milligrams per kilogram of bod.
For `CCC1(c2ccccc2)C(=O)NC(=O)NC1=O` [Phenobarbital, reference compound], the ED50 ([1]; ip) was 22 mg/kg, the “Time of peak activity (Phase II)” value [2] was 1 h and the ED50 ([3]; ip) was 13 mg/kg.
With `CCCC(CCC)C(=O)O` [Valproic Acid, reference compound] the ED50 [1, 4] was 272 mg/kg, the “Protection against Maximal Electroshock-induced seizures (in words)” value [1] was “weakly effective against Maximal Electroshock-induced seizures” and the “Time of peak activity (Phase II)” value [2] was 0.25 h. The ED50 [3, 4] was 149 mg/kg and the “Protection against Metrazol-induced seizures (in words)” value [3] was “more effective against Metrazol-induced seizures”.
For Cu(II)2 (valproate)4, the “Lowest effective dose, MES (Phase I)” value [1, 5] was “I”, the “Lowest effective dose, MES (Phase I)” value [1, 6] was “I” and the “Lowest effective dose, MES (Phase I)” value [1, 7] was “I”. For the same compound, the “Lowest effective dose, MES (Phase I)” value [1, 8] was “I”, the “Protection against Maximal Electroshock-induced seizures (in words)” value [1] was “ineffective against Maximal Electroshock seizures” and the “Onset and duration of anticonvulsant action (in words)” value [2] was “rapid onset and short duration of activity following intraperitoneal administration; also recorded: prolonged onset of activity at a higher dose following subcutaneous administration”. The “Lowest effective dose, Metrazol (Phase I)” value [3, 5] was 100 milligrams per kilogram of bod, the “Lowest effective dose, Metrazol (Phase I)” value [3, 6] was “I” and the “Lowest effective dose, Metrazol (Phase I)” value [3, 7] was “I”. For the same compound, the “Lowest effective dose, Metrazol (Phase I)” value [3, 8] was 600 milligrams per kilogram of bod and the “Protection against Metrazol-induced seizures (in words)” value [3] was “effective in protecting against Metrazol-induced seizures; also recorded: some inhibitory activity against Metrazol-induced seizures”.
In the case of Cu(II)Carbamazepine(H2 O)2, the “Lowest effective dose, MES (Phase I)” value [1, 5] is reported as 10 milligrams per kilogram of bod, the “Lowest effective dose, MES (Phase I)” value [1, 6] is reported as 100 milligrams per kilogram of bod and the “Lowest effective dose, MES (Phase I)” value [1, 7] is reported as 30 milligrams per kilogram of bod. For the same compound, the “Lowest effective dose, MES (Phase I)” value [1, 8] was 100 milligrams per kilogram of bod, the “Anticonvulsant activity (in words)” value [2] was “effective anticonvulsant” and the “Lowest effective dose, Metrazol (Phase I)” value [3, 5] was 30 milligrams per kilogram of bod. The “Lowest effective dose, Metrazol (Phase I)” value [3, 6] was “I”, the “Lowest effective dose, Metrazol (Phase I)” value [3, 7] was 300 milligrams per kilogram of bod and the “Lowest effective dose, Metrazol (Phase I)” value [3, 8] was 300 milligrams per kilogram of bod. For the same compound, the “Protection against Metrazol-induced seizures (in words)” value [3] was “did not potentiate Metrazol seizures”.
In the case of “Cu(II)Pyridoxylidene-L-phenylalaninate(H2 O)2”, the “Lowest active dose, MES (Phase I)” value ([1]; IP, challenge time 30 min) is reported as “I”, the “Lowest active dose, MES (Phase I)” value ([1]; IP, challenge time 4 hrs) is reported as “I” and the “Anticonvulsant activity (in words)” value [2] is reported as “no activity”. The “Lowest active dose, Metrazol (Phase I)” value ([3]; IP, challenge time 30 min) was “I” and the “Lowest active dose, Metrazol (Phase I)” value ([3]; IP, challenge time 4 hrs) was “I”.
For Cu(II)Pyridoxylidene-L-valinate(H2 O), the “Lowest active dose, MES (Phase I)” value ([1]; IP, challenge time 30 min) was “I”, the “Lowest active dose, MES (Phase I)” value ([1]; IP, challenge time 4 hrs) was “I” and the “Anticonvulsant activity (in words)” value [2] was “no activity”. The “Lowest active dose, Metrazol (Phase I)” value ([3]; IP, challenge time 30 min) was “I” and the “Lowest active dose, Metrazol (Phase I)” value ([3]; IP, challenge time 4 hrs) was “I”.
With Cu(II)oxazepam the “Lowest effective dose, MES (Phase I)” value [1, 5] was 10 milligrams per kilogram of bod, the “Lowest effective dose, MES (Phase I)” value [1, 6] was “I” and the “Onset and duration of anticonvulsant action (in words)” value [2] was “more prolonged in its action against Metrazol induced seizures”. For the same compound, the “Anticonvulsant activity (in words)” value [2] was “protected against both types of seizure”, the “Lowest effective dose, Metrazol (Phase I)” value [3, 5] was 1 milligrams per kilogram of bod and the “Lowest effective dose, Metrazol (Phase I)” value [3, 6] was 10 milligrams per kilogram of bod.

Source: US4758555A, “Method for treating convulsions and epilepsy with organic copper compounds” (priority 1986, dated 1988)
